Like-named read-outs stand apart in the source and are kept apart here.
How the values were obtained:
corn = test: Test A preemergence; type: in vivo, Zea mays; conditions: Zea mays, pre-emergence, 240 h; for Corn plant response rating (crop injury, 0 = no effect, 100 = complete kill) at 125 g/ha: 125 g ai/ha; for Corn plant response rating (crop injury, 0 = no effect, 100 = complete kill) at 500 g/ha: 500 g ai/ha
How it was run: (§1)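 Plants were grown in loam and sand and treated preemergence or postemergence (one- to two-leaf stage, 2–10 cm) with compound in solvent plus surfactant. Response was scored against untreated controls after 10 greenhouse days, where 0 means no effect and 100 complete control.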

foxtail, giant = test: Test A preemergence; type: in vivo, Setaria faberi; conditions: Setaria faberi, pre-emergence, 240 h, read-out: Plant response rating, Foxtail, Giant; for pest or weed control at 125 g/ha: 125 g ai/ha; for pest or weed control at 500 g/ha: 500 g ai/ha
How it was run: as §1

goosegrass = test: Test A preemergence; type: in vivo, Eleusine indica; conditions: Eleusine indica, pre-emergence, 240 h, read-out: Plant response rating, Goosegrass; for pest or weed control at 125 g/ha: 125 g ai/ha; for pest or weed control at 500 g/ha: 500 g ai/ha
How it was run: as §1

kochia [1] = test: Test A preemergence; type: in vivo, Bassia scoparia; conditions: Bassia scoparia, pre-emergence, 240 h, read-out: Plant response rating, Kochia; for pest or weed control at 125 g/ha: 125 g ai/ha; for pest or weed control at 500 g/ha: 500 g ai/ha
How it was run: as §1

oat, wild = test: Test A preemergence; type: in vivo, Avena fatua; conditions: Avena fatua, pre-emergence, 240 h, read-out: Plant response rating, Oat, Wild; for pest or weed control at 125 g/ha: 125 g ai/ha; for pest or weed control at 500 g/ha: 500 g ai/ha
How it was run: as §1

wheat = test: Test A preemergence; type: in vivo, Triticum aestivum; conditions: Triticum aestivum, pre-emergence, 240 h, read-out: Plant response rating, Wheat; for plant injury at 125 g/ha: 125 g ai/ha; for plant injury at 500 g/ha: 500 g ai/ha
How it was run: as §1

kochia [2] = test: Test A postemergence; type: in vivo, Bassia scoparia; conditions: Bassia scoparia, post-emergence, 240 h; for pest or weed control at 125 g/ha: 125 g ai/ha; for pest or weed control at 500 g/ha: 500 g ai/ha
How it was run: as §1

ryegrass, Italian = test: Test A postemergence; type: in vivo, Lolium multiflorum; conditions: Lolium multiflorum, post-emergence, 240 h; for pest or weed control at 125 g/ha: 125 g ai/ha; for pest or weed control at 500 g/ha: 500 g ai/ha
How it was run: as §1

soybean = test: Test A postemergence; type: in vivo, Glycine max; conditions: Glycine max, post-emergence, 240 h; for plant injury at 125 g/ha: 125 g ai/ha; for plant injury at 500 g/ha: 500 g ai/ha
How it was run: as §1

galium = test: Test A postemergence; type: in vivo, Galium aparine; conditions: Galium, post-emergence, 240 h; for pest or weed control at 125 g/ha: 125 g ai/ha; for pest or weed control at 500 g/ha: 500 g ai/ha
How it was run: as §1

horseweed = test: Test A postemergence; type: in vivo, Erigeron canadensis; conditions: Erigeron canadensis, post-emergence, 240 h; for pest or weed control at 125 g/ha: 125 g ai/ha; for pest or weed control at 500 g/ha: 500 g ai/ha
How it was run: as §1

barnyardgrass = test: Test B flooded paddy test; type: in vivo, Echinochloa crus-galli; conditions: Echinochloa crus-galli, 312 h, 250 g ai/ha, Flood, 13 days, 0 to 100 scale (0 no effect, 100 complete control); read-out: Plant response rating, Barnyardgrass
How it was run: (§2)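 Species grown to 2-leaf stage; pots flooded 3 cm above soil and compound applied directly to paddy water, depth maintained throughout. After 13 days in greenhouse, plants visually rated against controls on 0–100 scale (0 no effect, 100 complete control); dash means no result.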

rice = test: Test B flooded paddy test; type: in vivo, Oryza sativa; conditions: Oryza sativa, 312 h; 250 g ai/ha, Flood, 13 days, 0 to 100 scale (0 no effect, 100 complete control); read-out: Plant response rating, Rice
How it was run: as §2

sedge, umbrella = test: Test B flooded paddy test; type: in vivo, Cyperus difformis; conditions: Cyperus difformis, 312 h; 250 g ai/ha, Flood, 13 days, 0 to 100 scale (0 no effect, 100 complete control); read-out: Plant response rating, Sedge, Umbrella
How it was run: as §2

[3] = visual injury after 10 days, 0 to 100 scale, 0 is no effect, 100 is complete control
[4] = 0 to 100 scale (0 no effect, 100 complete control), 10 days
[5] = postemergence, 10 days, visual injury, 0 to 100 scale (0 no effect, 100 complete control), read-out: Plant response rating, Kochia
[6] = postemergence, 10 days, visual injury, 0 to 100 scale (0 no effect, 100 complete control), read-out: Plant response rating, Ryegrass, Italian
[7] = postemergence, 10 days, visual injury, 0 to 100 scale (0 no effect, 100 complete control), read-out: Plant response rating, Soybean
[8] = postemergence, 10 days, visual injury, 0 to 100 scale (0 no effect, 100 complete control), read-out: Plant response rating, Galium
[9] = postemergence, 10 days, visual injury, 0 to 100 scale (0 no effect, 100 complete control), read-out: Plant response rating, Horseweed
[10] = postemergence, 10 days, 0 to 100 scale (0 no effect, 100 complete control), read-out: Kochia plant response rating
[11] = postemergence, 10 days, 0 to 100 scale (0 no effect, 100 complete control), read-out: Ryegrass, Italian plant response rating
[12] = postemergence, 10 days, 0 to 100 scale (0 no effect, 100 complete control), read-out: Soybean plant response rating
[13] = postemergence, 10 days, 0 to 100 scale (0 no effect, 100 complete control), read-out: Galium plant response rating
[14] = postemergence, 10 days, 0 to 100 scale (0 no effect, 100 complete control), read-out: Horseweed plant response rating

| Compound | Corn plant response rating (crop injury, 0 = no effect, 100 = complete kill) at 125 g/ha (corn; [3]) | Corn plant response rating (crop injury, 0 = no effect, 100 = complete kill) at 500 g/ha (corn; [4]) | pest or weed control at 125 g/ha (foxtail, giant; [3]) | pest or weed control at 500 g/ha (foxtail, giant; [4]) | pest or weed control at 125 g/ha (goosegrass; [3]) | pest or weed control at 500 g/ha (goosegrass; [4]) | pest or weed control at 125 g/ha (kochia [1]; [3]) | pest or weed control at 500 g/ha (kochia [1]; [4]) | pest or weed control at 125 g/ha (oat, wild; [3]) | pest or weed control at 500 g/ha (oat, wild; [4]) | plant injury at 125 g/ha (wheat; [3]) | plant injury at 500 g/ha (wheat; [4]) | pest or weed control at 250 g/ha (barnyardgrass) | plant injury at 250 g/ha (rice) | pest or weed control at 250 g/ha (sedge, umbrella) | pest or weed control at 125 g/ha (kochia [2]; [10]) | pest or weed control at 500 g/ha (kochia [2]; [5]) | pest or weed control at 125 g/ha (ryegrass, Italian; [11]) | pest or weed control at 500 g/ha (ryegrass, Italian; [6]) | plant injury at 125 g/ha (soybean; [12]) | other results |
| --- | --- | --- | --- | --- | --- | --- | --- | --- | --- | --- | --- | --- | --- | --- | --- | --- | --- | --- | --- | --- | --- |
| C#Cc1ncn(-c2cccc(C(=O)N3C[C@H](C)Oc4c(C)cccc43)c2)n1 [Compound 64, [(2S)-2,3-Dihydro-2,8-dimethyl-4H-1,4-benzoxazin-4-yl][3-(3-ethynyl-1H-1,2,4-triazol-1-yl)phenyl]methanone] | 20% | 50% | 90% | 100% | 60% | 100% | 80% | 90% | 30% | 70% | 20% | 40% | 0% | 0% | 75% | – | – | – | – | – | pest or weed control at 125 g/ha (kochia [2]; [5]): 60%; pest or weed control at 500 g/ha (kochia [2]; Postemergence, 0 to 100 scale, read-out: Plant response rating, Kochia): 80%; pest or weed control at 125 g/ha (ryegrass, Italian; [6]): 40%; pest or weed control at 500 g/ha (ryegrass, Italian; Postemergence, 0 to 100 scale, read-out: Plant response rating, Ryegrass, Italian): 100%; plant injury at 125 g/ha (soybean; [7]): 80%; plant injury at 500 g/ha (soybean; Postemergence, 0 to 100 scale, read-out: Plant response rating, Soybean): 100%; pest or weed control at 125 g/ha (galium; [8]): 90%; pest or weed control at 500 g/ha (galium; Postemergence, 0 to 100 scale, read-out: Plant response rating, Galium): 100%; pest or weed control at 125 g/ha (horseweed; [9]): 0%; pest or weed control at 500 g/ha (horseweed; Postemergence, 0 to 100 scale, read-out: Plant response rating, Horseweed): 40% |
| COCc1ncn(-c2cccc(C(=O)N3C[C@H](C)Oc4c(C)cccc43)c2)n1 [Compound 101, [(2S)-2,3-Dihydro-2,8-dimethyl-4H-1,4-benzoxazin-4-yl][3-[3-(methoxymethyl)-1H-1,2,4-triazol-1-yl]phenyl]methanone] | 0% | 60% | 90% | 100% | 90% | 100% | 20% | 90% | 40% | 90% | 0% | 50% | 15% | 0% | 85% | 70% | 80% | 60% | 60% | 70% | plant injury at 500 g/ha (soybean; [7]): 100%; pest or weed control at 125 g/ha (galium; [13]): 50%; pest or weed control at 500 g/ha (galium; [8]): 90%; pest or weed control at 125 g/ha (horseweed; [14]): 0%; pest or weed control at 500 g/ha (horseweed; [9]): 30% |
| Cc1cccc2c1O[C@@H](C)CN2C(=O)c1cccc(-n2cnn(C)c2=O)c1 [Compound 117, 4-[3-[[(2S)-2,3-Dihydro-2,8-dimethyl-4H-1,4-benzoxazin-4-yl]carbonyl]phenyl]-2,4-dihydro-2-methyl-3H-1,2,4-triazol-3-one] | 0% | – | 60% | – | 50% | – | 0% | – | 20% | – | 0% | – | 0% | 0% | 0% | 30% | 70% | 30% | 60% | 60% | Corn plant response rating (crop injury, 0 = no effect, 100 = complete kill) at 500 g/ha (corn; [3]): 10%; pest or weed control at 500 g/ha (foxtail, giant; [3]): 90%; pest or weed control at 500 g/ha (goosegrass; [3]): 100%; pest or weed control at 500 g/ha (kochia [1]; [3]): 60%; pest or weed control at 500 g/ha (oat, wild; [3]): 70%; plant injury at 500 g/ha (wheat; [3]): 20%; plant injury at 500 g/ha (soybean; [7]): 100%; pest or weed control at 125 g/ha (galium; [13]): 0%; pest or weed control at 500 g/ha (galium; [8]): 0%; pest or weed control at 125 g/ha (horseweed; [14]): 0%; pest or weed control at 500 g/ha (horseweed; [9]): 10% |

Source: patent US20260262643A1, “HERBICIDAL BENZOXAZINES” (FMC CORPORATION, priority 2022, published 2026)
